The record followed here is PubChem BioAssay AID328 (DTP/NCI, 2004).

This assay deals with BDF1 mice, P388 leukemia ip, median survival T/C. In words: NCI In Vivo Anticancer Drug Screen. Data for tumor model P388 Leukemia (intraperitoneal) in B6D2F1 (BDF1) mice. Conditions: endpoint: median survival time, higher = longer survival. The essentials:
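In tumour-bearing mice, survival after compound treatment is set against the vehicle group and given as a quotient.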

Setting [1] is: dose: 200.0 mg/kg/injection, schedule: Q01DX009 (ip), vehicle: saline with Tween-80.
The mark [2] stands for this setting: dose: 50.0 mg/kg/injection, schedule: Q01DX009 (ip), vehicle: saline with Tween-80.
Where [3] appears, read: dose: 100.0 mg/kg/injection, schedule: Q04DX003 (ip), vehicle: saline with Tween-80.
[4] abbreviates: dose: 200.0 mg/kg/injection, schedule: Q04DX003 (ip), vehicle: saline with Tween-80.
Setting [5] is: dose: 100.0 mg/kg/injection, schedule: Q04DX003 (ip), vehicle: Klucel (hydroxypropylcellulose) (HPC).
[6] abbreviates: dose: 200.0 mg/kg/injection, schedule: Q04DX003 (ip), vehicle: Klucel (hydroxypropylcellulose) (HPC).
Where [7] appears, read: dose: 400.0 mg/kg/injection, schedule: Q04DX003 (ip), vehicle: Klucel (hydroxypropylcellulose) (HPC).
Setting [8] is: dose: 25.0 mg/kg/injection, schedule: Q01DX009 (ip), vehicle: saline with Tween-80.
[9] abbreviates: dose: 50.0 mg/kg/injection, schedule: Q04DX003 (ip), vehicle: saline with Tween-80.
[10] abbreviates: dose: 12.5 mg/kg/injection, schedule: Q01DX009 (ip), vehicle: saline with Tween-80.

Where “and” joins values, the source holds several entries; their conditions need not be identical. Equal entries are not always repeated. Toxic doses and inconclusive results are not listed.

Regarding `C#CCOC1CCCCO1` (configuration not stated), the T/C reads like this: (dose: 25.0 mg/kg/injection, schedule: Q01DX009 (ip), vehicle: saline) 90 % of control; (dose: 50.0 mg/kg/injection, schedule: Q01DX009 (ip), vehicle: saline) 100 % of control; (dose: 100.0 mg/kg/injection, schedule: Q01DX009 (ip), vehicle: saline) 100 % of control.

As to `N#Cc1ccccc1-n1c(=O)c2cc3c(=O)n(-c4ccccc4C#N)c(=O)c3cc2c1=O`, under setting [1], the T/C is 162 % of control.

In the case of `C=C(C)C(=O)OC1C(C(C)CCCO)=C(CO)CC2OC(=O)C(=C)C21` (configuration not stated), the T/C is, setting by setting: (dose: 2.0 mg/kg/injection, schedule: Q01DX009 (ip), vehicle: saline + alcohol) 104 % of control; (dose: 4.0 mg/kg/injection, schedule: Q01DX009 (ip), vehicle: saline + alcohol) 109 % of control; (dose: 8.0 mg/kg/injection, schedule: Q01DX009 (ip), vehicle: saline + alcohol) 114 % of control; (dose: 16.0 mg/kg/injection, schedule: Q01DX009 (ip), vehicle: saline + alcohol) 109 % of control; (dose: 32.0 mg/kg/injection, schedule: Q01DX009 (ip), vehicle: saline + alcohol) 152 % of control.

For `COC(=O)C12CCc3cc(OC)ccc3C1=CC(=O)C2` (configuration not stated), the T/C (dose: 100.0 mg/kg/injection, schedule: Q04DX003 (ip), vehicle: saline sonified) was 100 % of control and the T/C (dose: 200.0 mg/kg/injection, schedule: Q04DX003 (ip), vehicle: saline sonified) was 95 % of control.

`Clc1ccccc1-c1nc(-c2ccncc2)no1`: the T/C is 89 % of control under setting [2]; 93 % of control (dose: 100.0 mg/kg/injection, schedule: Q01DX009 (ip), vehicle: saline with Tween-80); 100 % of control under setting [1].

In the case of `CC1CC(=O)C(O)C2(C)C1CC1OC(=O)C(OC(=O)c3ccccc3)C3C(C)C(O)C4(O)OCC13C42` (configuration not stated), the T/C is, setting by setting: (dose: 0.12 mg/kg/injection, schedule: Q01DX009 (ip), vehicle: saline with Tween-80) 110 % of control; (dose: 0.25 mg/kg/injection, schedule: Q01DX009 (ip), vehicle: saline with Tween-80) 121 % of control; (dose: 1.0 mg/kg/injection, schedule: Q01DX009 (ip), vehicle: saline with Tween-80) 118 % of control; (dose: 2.0 mg/kg/injection, schedule: Q01DX009 (ip), vehicle: saline with Tween-80) 121 % of control; (dose: 4.0 mg/kg/injection, schedule: Q01DX009 (ip), vehicle: saline with Tween-80) 112 % of control; (dose: 8.0 mg/kg/injection, schedule: Q01DX009 (ip), vehicle: saline with Tween-80) 116 % of control. Further, the T/C (dose: 16.0 mg/kg/injection, schedule: Q01DX009 (ip), vehicle: saline with Tween-80) was 118 % of control.

With `COc1cccc(CC(=O)NCCc2ccc(OC)c(OC)c2)c1`, the T/C is 100 % of control under setting [3]; 90 % of control under setting [4]; 100 % of control (dose: 400.0 mg/kg/injection, schedule: Q04DX003 (ip), vehicle: saline with Tween-80).

`O=C(O)CN(CCN(CC(=O)O)CC(=O)O)CC(=O)O`: the T/C (dose: 25.0 mg/kg/injection, schedule: Q01DX010 (ip), vehicle: saline) was 100 % of control; the T/C (dose: 50.0 mg/kg/injection, schedule: Q01DX010 (ip), vehicle: saline) was 91 % of control; the T/C (dose: 200.0 mg/kg/injection, schedule: Q01DX010 (ip), vehicle: saline) was 95 % of control.

As for `CC1(C)OS2(OC(C)(C)c3ccccc32)c2ccccc21`, the T/C (dose: 50.0 mg/kg/injection, schedule: Q01DX009 (ip), vehicle: other) is 101 % of control; the T/C (dose: 100.0 mg/kg/injection, schedule: Q01DX009 (ip), vehicle: other) was 107 % of control; the T/C (dose: 200.0 mg/kg/injection, schedule: Q01DX009 (ip), vehicle: other) was 117 % of control.

As to `CC(C)CCNc1ccc(NCCC(C)C)cc1`, the T/C (dose: 2.34 mg/kg/injection, schedule: Q01DX009 (ip), vehicle: alcohol) is 100 % of control; the T/C (dose: 4.68 mg/kg/injection, schedule: Q01DX009 (ip), vehicle: alcohol) is 100 % of control; the T/C (dose: 9.37 mg/kg/injection, schedule: Q01DX009 (ip), vehicle: alcohol) was 112 % of control; the T/C (dose: 13.75 mg/kg/injection, schedule: Q04DX003 (ip), vehicle: alcohol) was 109 % of control; the T/C (dose: 18.75 mg/kg/injection, schedule: Q01DX009 (ip), vehicle: alcohol) is 122 % of control; the T/C (dose: 27.5 mg/kg/injection, schedule: Q04DX003 (ip), vehicle: alcohol) was 109 % of control.

Turning to `O=C(O)C(Cc1ccc(O)cc1)c1ccccc1` (configuration not stated), the T/C is 86 % of control (dose: 100.0 mg/kg/injection, schedule: Q01DX009 (ip), vehicle: Klucel (hydroxypropylcellulose) (HPC)); 90 % of control under setting [5]; 95 % of control (dose: 200.0 mg/kg/injection, schedule: Q01DX009 (ip), vehicle: Klucel (hydroxypropylcellulose) (HPC)); 90 % of control under setting [6]; 109 % of control (dose: 400.0 mg/kg/injection, schedule: Q01DX009 (ip), vehicle: Klucel (hydroxypropylcellulose) (HPC)); 95 % of control under setting [7].

Consider `O=C(NCc1cnccn1)Nc1ccccc1`, for which the T/C (dose: 25.0 mg/kg/injection, schedule: Q04DX003 (ip), vehicle: saline) is 104 % of control; the T/C (dose: 50.0 mg/kg/injection, schedule: Q04DX003 (ip), vehicle: saline) is 103 % of control; the T/C (dose: 100.0 mg/kg/injection, schedule: Q04DX003 (ip), vehicle: saline) was 87 % of control; the T/C (dose: 200.0 mg/kg/injection, schedule: Q04DX003 (ip), vehicle: saline) is 100 % of control; the T/C (dose: 400.0 mg/kg/injection, schedule: Q04DX003 (ip), vehicle: saline) is 100 % of control.

On to `O=[N+]([O-])c1ccc2scc3c4ccccc4nc-3c2c1`, for which the T/C (dose: 6.25 mg/kg/injection, schedule: Q01DX009 (ip), vehicle: saline) is 103 % of control.

For the compound `Cc1ccc(NS(=O)(=O)c2ccc(F)cc2)cc1Cl`, the T/C was 109 % of control under setting [5], 100 % of control under setting [6] and 104 % of control under setting [7].

As for `O=C1OC(=O)C2C1C1C3C=CC3C1C21C=C1` (configuration not stated), the T/C reads like this: (dose: 85.0 mg/kg/injection, schedule: Q04DX003 (ip), vehicle: Klucel (hydroxypropylcellulose) (HPC)) 95 % of control; (dose: 100.0 mg/kg/injection, schedule: Q01DX001 (ip), vehicle: saline) 113 % of control and 116 % of control; (dose: 135.0 mg/kg/injection, schedule: Q04DX003 (ip), vehicle: Klucel (hydroxypropylcellulose) (HPC)) 104 % of control; (dose: 200.0 mg/kg/injection, schedule: Q01DX001 (ip), vehicle: saline) 113 % of control; under setting [6], 113 % of control; (dose: 300.0 mg/kg/injection, schedule: Q04DX003 (ip), vehicle: Klucel (hydroxypropylcellulose) (HPC)) 118 % of control. Also, for the setting “dose: 400.0 mg/kg/injection, schedule: Q01DX001 (ip), vehicle: saline”, the T/C is 100 % of control and 104 % of control.

In the case of `c1ccc(C2OC3(CCCCC3)C[N+]23CCCC3)cc1` (configuration not stated), the T/C is, setting by setting: under setting [8], 95 % of control; under setting [2], 113 % of control; under setting [9], 100 % of control; under setting [3], 87 % of control.

With `CN1CCN(C2=Nc3ccccc3Cc3ccccc32)CC1`, the T/C under setting [10] is 103 % of control; the T/C under setting [8] was 102 % of control; the T/C under setting [2] is 105 % of control and 108 % of control.

With `Nc1ncnc2oc(-c3ccccc3)c(-c3ccccc3)c12`, the T/C reads like this: (dose: 6.25 mg/kg/injection, schedule: Q01DX009 (ip), vehicle: saline with Tween-80) 100 % of control; under setting [10], 100 % of control; under setting [8], 97 % of control; under setting [2], 92 % of control.

As for `Cc1ccc2c(c1)nc1c3ccccc3nnn21`, the T/C is, setting by setting: under setting [9], 112 % of control; under setting [3], 104 % of control; under setting [4], 107 % of control.
